Laboratory results reported in PMC4684281, “Antitumor Effects and Mechanism of Novel Emodin Rhamnoside Derivatives against Human Cancer Cells In Vitro” (PLoS ONE, 2015).
Converted amounts (≈) assume the structure as drawn. “And” between values parts separate entries of the source, which are not always exact repeats. Equal entries are not always repeated.

What was measured:
[1] = test system: MDCK cells; test: MTT cell viability assay, MDCK; assay type: cell-based, Canine; details: Canis lupus familiaris, 72 hours
Procedure: (§1) The viability of cancer cells was evaluated by MTT assay. Briefly, cells were inoculated in 96-well culture plates at the density of 1×10^4/well with complete medium containing 10% fetal calf serum in a final volume of 0.2 mL. Cells were incubated at 37°C for at least 24 hours to allow optimal attachment. When the cells reached 60% confluence, they were treated with Cisplatin, HCPT and emodin rhamnopyranosides derivatives in various concentrations, and incubated in a humidity-controlled 5%CO2 incubator at 37°C for 72 hours. Medium were exchanged once every 24 hours. Cell control group and blank group were set up in the same manner, with each group having six parallel wells. Cell survival was assessed by directly adding 22 μL of 5mg/mL MTT to 0.2 mL medium. After three hours, the formazan precipitate was dissolved in 200μL isopropanol per well, and completely mixed under room temperature. Afterwards, the optical density of each well was detected at 570 nm wavelength by iMark microplate reader (Bio-rad,USA). This experiment was repeated at least three times.

[2] = test system: HepG2 cells; test: Flow cytometry apoptosis analysis (Annexin V/7-AAD), HepG2; assay type: cell-based, Human; details: 48h (Fig 7 legend: 72h); for Early apoptosis: control 6.16±2.20; for Late apoptosis: control 10.71±1.42; for Living cell: control 79.87±1.84
Procedure: Flow cytometry analysis was determined using Annexin V-APC/7-AAD Apoptosis Detection Kit (BD Parmagen, U.S.A). HepG2 cells were inoculated at a density of 3×10^5/well in 6-well plates, and allowed to attach at 37°C for 24 hours. Afterwards, cells were treated with specific concentration EM-d-Rha, and cultured and harvested as described previously. Cells of each sample were resuspended in […] cold binding buffer before adding 2.5μL Annexin V-APC conjugate and 5μL 7-AAD solution. Then cells were incubated for 15 min on ice in the dark. Cell suspension was diluted to a final volume of 250μL with ice-cold, 1× Annexin V Binding Buffer. The assay was conducted by flow cytometry (BD FACSCalibur,USA). Scatter plots were generated using Cell Quest pro software (BD Biosciences, San Jose, CA). The experiment was repeated three times.

[3] = test system: HUVEC; test: MTT cell viability assay, HUVEC; assay type: cell-based; details: Homo sapiens, MTT at 72h, n=3, mean±S.E.M, read-out: IC50 for EM-d-Rha, HUVEC
Procedure: as §1

[4] = test system: Cyto C, caspase-3 and caspase-9 proteins in HepG2 cells; test: Western blot analysis of apoptotic proteins; assay type: cell-based, Human; details: HepG2, compared to control group
Procedure: HepG2 cells were inoculated, cultured and harvested as described previously. Afterwards, the experiment was performed on ice. The harvested cell pellet was washed with cold PBS before being resuspended in 300μL cytosol lysis buffer through vortex. Then cells of all samples were lysed by sonication method on the ice using the ultrasonic cell disruptor (100 W for 30s×4 times). Total protein of each sample was measured by Bradford assay using protein quantification reagents from Bio-Rad. All samples were added 2×loading buffer before analyzing on 12% gels by SDS-PAGE. Then the proteins were transferred to nitrocellulose membranes by electro-blotting. The membranes were blocked in 1% bovine serum albumin (BSA) or 5% milk solution at room temperature for 30min, followed by incubation with the primary antibody against rabbit (Univ-bio, China) at 4°C overnight. The membranes were then washed three times with 1×TBST, each time last for 5 mins. The membranes were then incubated with the secondary antibodies for 3 h at 4°C, followed by washing with 1×TBST as described previously. Finally, the immuno-reactive bands were detected and documented using an enhanced chemiluminescent Western blotting system (Thermo-scientific, USA) on a Versa Doc imaging system.

[5] = test system: Cyto C gene expression of HepG2 cells; test: RT-qPCR gene expression, Cytochrome C; assay type: cell-based, Human; details: 48 hours, control 1.030±0.280
Procedure: HepG2 cells were inoculated in 6-well culture plates at a density of 3×10^5 cells/well, and allowed to attach at 37°C for 24 hours. Then cells were treated with specific concentrations of EM-d-Rha and incubated in a humidified incubator supplied with 5% CO2 at 37°C for 48 hours. Medium were changed once every 24 hours. Afterwards, mRNA was extracted from every group using E.Z.N.A.^TM Total RNA Kit II according to the manufacturer’s instructions. The extracted mRNA was dissolved in 20 μL ddH2O (Qiagen) containing diethyl pyrocarbonate (DEPC). The concentration of mRNA was quantified with a NanoDrop ND-100 device (Thermo Fisher Scientific). cDNA was synthesized using 3μg of the extracted mRNA from each sample with PCR system (BIO-RAD,USA). The cDNA synthesis reaction was prepared according to the manufacturer’s instructions by mixing 3μg mRNA, 4.0μL 5× MMLV buffer, 3 μL oligodT18, 0.5μL 10 mM dNTP solution, 0.8μL RNase inhibitor, 3.7μL MMLV Rtase, and 6.0μL DEPC ddH2O in PCR tubes. The reaction condition was 5min at 70°C, 60 min at 42°C and 10min at 4°C. The products were used for subsequent RT-qPCR analysis. The level of mRNA expression was measured by RT-qPCR using a CFX96^TM C1000 Real-Time PCR System (BIO-RAD, USA).The primers were designed using idt.dna software system (http //www.idtdna.com). The specific primers were: Cyto C: 5′-[…]-3′ (forward), 5′- […] -3′ (reverse); Caspase 3: 5′- CCTACAGCCCATTTC TCCATAC-3′ (forward), 5′-[…]-′ (reverse); β-actin: 5′-[…]-3′ (forward), 5′-[…]-3′ (reverse). The product sizes of Cyto C, Caspase 3 and β-actin were 91bp, 125bp and 107bp, respectively. The PCR reaction was performed in a final volume of 20μL using an optical 96-well tray. The reaction mixture consisted of 10μL of SYBR I green Mix/ GoTaq®qPCR
Master Mix (Promega), 0.3μL of each primer (10μM), and 1.0 μL cDNA template. PCR cycling condition was one cycle of 5min at 95°C, 39 cycles and each of which was consisted of 15 seconds at 95°C, 15 seconds at 62°C and 30 seconds at 72°C, with final extension at 60°C for 5 Seconds. The thermal melt parameter was investigated to assess the homogeneity of PCR. Each sample was analyzed in quadruplicate and mean was used for further analysis. The mRNA expression levels of each sample were quantified by measuring the threshold cycle (CT) values of genes. The relative values of the target gene expression were calculated according to CT values of the target genes and the reference gene (β-actin) by applying Livak and Schmittgen method. That is, it equals to 2^-Δ ΔCT, ΔCT equals the mean of Ct for target gene minus the mean of Ct for β-actin gene, and ΔΔCT equals ΔCT of the treated group minus ΔCT of the control group.

[6] = HepG2, 10μM, listed as EM-d-Rha

Work on CC(=O)O[C@@H]1[C@@H](O[C@@H]2O[C@@H](C)[C@H](O)[C@@H](OC(C)=O)[C@H]2OC(C)=O)[C@H](C)O[C@@H](Oc2cc(O)c3c(c2)C(=O)c2cc(C)cc(O)c2C3=O)[C@@H]1OC(C)=O [S-8, 3-(2”,3”-Di-O-acetyl-α-L-rhamnopyranosyl-(1→4)-2’,3’-di-O-acetyl-α-L-rhamnopyranosyl)-emodin] yielded an IC50 [1] of 18.5 µg/mL (≈ 25.3 µM), an Early apoptosis ([2]; HepG2, 2.5μM) of 40.40±5.70 % and a Late apoptosis ([2]; HepG2, 2.5μM) of 7.50±1.04%. It also gave a Living cell ([2]; HepG2, 2.5μM) of 51.20±5.10 %, an Early apoptosis ([2]; HepG2, 5μM) of 45.20±4.17 % and a Late apoptosis ([2]; HepG2, 5μM) of 17.53±3.16%. The Living cell ([2]; HepG2, 5μM) was 36.40±3.23 %, the Early apoptosis [2, 6] was 78.77% and 78.77±1.22 % and the Late apoptosis ([2]; HepG2, 10μM) was 4.22±1.63%. For the same compound, the Living cell [2, 6] was 16.53% and 16.53±0.68 %, the IC50 [3] was 18.7 ± 3.9 µM and the “Expression levels of Cyto C, caspase-3 and caspase-9 proteins (western-blot)” value [4] was “three proteins expression increased at a concentration-dependent manner”. The “Cytochrome C mRNA expression level relative to controls” value ([5]; HepG2, 0.70μM) was 1.009±0.475 fold, the “Cytochrome C mRNA expression level relative to controls” value ([5]; HepG2, 1.40μM) was 1.086±0.727 fold and the “Cytochrome C mRNA expression level relative to controls” value ([5]; HepG2, 2.80μM, listed as EM-d-Rha) was 3.258±2.402 fold. The “Cytochrome C mRNA expression level relative to controls” value ([5]; HepG2, 5.60μM) was 5.625±4.950 fold.
